Measurements from patent publication US9259412B2, “Composition of the treatment of vascular diseases or KCa3.1 channel-mediated diseases comprising modafinil or derivatives thereof” (EWHA UNIVERSITY—INDUSTRY COLLABORATION FOUNDATION, priority 2011, dated 2016).
Like-named read-outs stand apart in the source and are kept apart here.

Legend:
[1] = system: mouse aortic smooth muscle cells; experiment: Measurement of intracellular cAMP in cultured mouse aortic smooth muscle cells; type: cell-based
Description: Single smooth muscle cells (SMCs) were used to examine the effect of modafinil on vascular diseases. Single smooth muscle cells were separated from an aorta of the mouse. Three to four-month-old mice of either gender were anaesthetized with pentobarbital sodium (50 mg/kg weight) and sacrificed by cervical dislocation. Thoracic aortas were dissected out in Ca2+-free external solution and dissociated by incubation in papain (1 mg/ml) for 5 min followed by incubation in collagenase (1.5 mg/ml), bovine serum albumin (BSA; 2 mg/ml) and dithiothreitol (1 mg/ml) for 10 to 20 min in Ca2+-free external solution at 37° C. Segments were then transferred to fresh Ca2+-free external solution, and single mouse SMCs were dispersed with gentle agitation using a glass pipette. Mouse aortic SMCs were cultivated in Dulbecco's Modified Eagle Medium (DMEM) containing 10% fetal bovine serum (FBS) plus 1% minimum essential amino acids (Life Technologies). Cell culture was maintained at 37° C. in fully humidified air with 5% CO2.
Cultured mouse aortic SMCs were incubated with modafinil for 3 minutes within incomplete media. The concentration of cAMP (adenosine 3″,5″-cyclic monophosphate) from lysate was determined in each sample using a Parameter cAMP assay kit (R&D Systems) according to the manufacturer's instructions.

[2] = system: NIH-3T3 fibroblasts; experiment: Measurement of intracellular cAMP in NIH-3T3 fibroblasts; type: cell-based; settings: for intracellular cAMP concentration: NIH-3T3 cells
Description: Meanwhile, NIH-3T3 fibroblasts were used to verify the effect on KCa3.1 mediated diseases. NIH-3T3 fibroblasts (CRL-2795; American Type Culture Collection, VA, USA) were maintained in the following manner. Cells were cultivated as a monolayer in Dulbecco's Modified Eagle Medium (DMEM, Hyclone, Logan, Utah, USA) added with 10% fetal bovine serum (FBS), 100 units/ml penicillin, and 100 μg/ml streptomycin. All cells were maintained at 37° C. in humidified condition under 5% CO2. Media were changed twice weekly, and cultures were passaged at a dilution of 1:5 weekly. The medium was then removed and replaced with fresh medium, and the cells were maintained for the time periods indicated.
NIH-3T3 fibroblasts were incubated with modafinil for 3 minutes within incomplete media. The concentration of cAMP (adenosine 3′,5′-cyclic monophosphate) from lysate was determined in each sample using a Parameter cAMP assay kit (R&D systems) according to the manufacturer's instructions.

[3] = system: mouse aortic rings; experiment: Contraction measurement on isolated mouse aortic rings; settings: mouse aortic rings contracted by norepinephrine (0.1 μM), Hill's equation; read-out: IC50 of relaxation of contracted rings
Description: Experimental animals were used to examine the effect of modafinil on relaxation of contracted blood vessels. Five to six-month-old mice or rats were anaesthetized by an intraperitoneal injection of pentobarbital sodium (50 mg/kg, weight). The mouse thoracic aorta and rat pulmonary artery were dissected out and cut into rings of about 3 mm. Mechanical responses were recorded from the ring segments using a home-made myograph. Each ring was threaded with two strands of tungsten wire (120 μm in diameter). One wire was anchored in the organ bath chamber (1 ml) and the other was connected to a mechano-transducer (Grass, FT-03) mounted on a three dimensional manipulator. The muscle chamber was perfused at a flow rate of 2.5 ml/minute with oxygenated (95% O2/5% CO2) Krebs/Ringer bicarbonate solution with a peristaltic pump. The composition (unit: mM) of the Krebs solution was as follows: NaCl 118.3, KCl 4.7, MgCl2 1.2, KH2PO4 1.22, CaCl2 2.5, NaHCO3 25.0, glucose 11.1, pH 7.4. Endothelial cells were removed by gentle rubbing with a cotton ball and NO production in endothelial cells was inhibited by pretreating with NG-nitro-1-arginine methyl ester (l-NAME). Rings were pre-contracted with 0.1 μM norepinephrine or 30 mM K+. […]

[4] = system: rat pulmonary arterial rings; experiment: Contraction measurement on isolated rat pulmonary arterial rings; settings: for IC50: Rattus norvegicus; for effect on vascular smooth muscle contraction: norepinephrine (0.1 μM)-induced contraction of rat pulmonary artery
Description: Experimental animals were used to examine the effect of modafinil on relaxation of contracted blood vessels. Five to six-month-old mice or rats were anaesthetized by an intraperitoneal injection of pentobarbital sodium (50 mg/kg, weight). The mouse thoracic aorta and rat pulmonary artery were dissected out and cut into rings of about 3 mm. Mechanical responses were recorded from the ring segments using a home-made myograph. Each ring was threaded with two strands of tungsten wire (120 μm in diameter). One wire was anchored in the organ bath chamber (1 ml) and the other was connected to a mechano-transducer (Grass, FT-03) mounted on a three dimensional manipulator. The muscle chamber was perfused at a flow rate of 2.5 ml/minute with oxygenated (95% O2/5% CO2) Krebs/Ringer bicarbonate solution with a peristaltic pump. The composition (unit: mM) of the Krebs solution was as follows: NaCl 118.3, KCl 4.7, MgCl2 1.2, KH2PO4 1.22, CaCl2 2.5, NaHCO3 25.0, glucose 11.1, pH 7.4. Endothelial cells were removed by gentle rubbing with a cotton ball and NO production in endothelial cells was inhibited by pretreating with NG-nitro-1-arginine methyl ester (l-NAME). Rings were pre-contracted with 0.1 μM norepinephrine or 30 mM K+.
Since increase in intracellular cAMP in vascular smooth muscle cells activates PKA and phosphorylates myosin light chain active enzyme to relax vascular smooth muscles, the present inventors examined whether modafinil relaxes vascular smooth muscles. Mouse aortic rings or rat pulmonary arterial rings were contracted by norepinephrine (0.1 μM). When the contraction reached a steady-state, modafinil was applied. With the application, the contracted mouse aortic ring (FIGS. 3A and 3B) or rat pulmonary arterial ring (FIGS. 3C and 3D) was relaxed in a concentration-dependent manner. […] When rat pulmonary artery was contracted by K+ (30 mM) of a high concentration, modafinil relaxed the contracted artery in a concentration-dependent manner (FIG. 3E). When the concentration-dependent reaction of rat pulmonary artery was fitted to Hill's equation, the IC50 of modafinil was determined to be 10.5±0.4 nM (FIG. 3F).

[5] = target: T1, KCa3.1 channel (Mus musculus, UniProt O89109); experiment: Whole-cell patch-clamp of KCa3.1 currents in NIH-3T3 fibroblasts; type: cell-based
T1 construct: cells which were not exposed to modafinil or forskolin were immunoblotted by anti-KCa3.1 antibody to confirm the presence of KCa3.1 channels; endogenous in cells; host or cells: NIH-3T3 fibroblasts
T1 sequence (O89109 whole entry): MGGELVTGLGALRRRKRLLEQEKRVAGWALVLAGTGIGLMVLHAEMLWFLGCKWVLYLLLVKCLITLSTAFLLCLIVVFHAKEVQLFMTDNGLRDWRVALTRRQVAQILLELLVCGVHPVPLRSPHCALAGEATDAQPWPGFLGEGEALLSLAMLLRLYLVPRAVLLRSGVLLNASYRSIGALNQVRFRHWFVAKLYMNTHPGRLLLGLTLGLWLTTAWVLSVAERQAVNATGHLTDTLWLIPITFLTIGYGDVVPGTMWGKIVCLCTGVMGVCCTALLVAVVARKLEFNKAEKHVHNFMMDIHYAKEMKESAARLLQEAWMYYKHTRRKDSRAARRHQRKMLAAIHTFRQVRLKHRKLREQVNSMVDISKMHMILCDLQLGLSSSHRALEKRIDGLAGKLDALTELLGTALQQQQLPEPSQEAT
Description: (§1) Electrophysiological analysis was performed according to the methods reported by Nilius and the like [Nilius et al., 1993, Pflugers Arch., 424(3-4): 285-293]. The patch-clamp technique was used in the whole-cell and excised patch configurations at room temperature. Whole-cell currents were measured using ruptured patches. Currents were monitored using an appropriate amplifier (EPC-10, HEKA, Lambrecht, Germany). In the whole cell experiment, we applied a voltage ramp from −100 mV to +100 mV with a 10 sec interval (650 ms duration) or voltage steps from a holding potential of −60 mV to potentials ranging from −100 mV to +100 mV in 20 mV increments (1 sec duration) with a 5 sec interval. Currents were recorded at a sampling rate of 1-4 kHz. Inside-out voltage clamps were performed using glass electrodes of tip resistance of 8-10 MΩ. Data were filtered at 1 KHz and stored in a computer for analysis using standard software (Axoscope 9.0, Axon Instruments, Foster City, Calif., USA). For some experiments, channel activity was expressed as the product of the number of channels times open probability (NPo), where NPo=Σ[(open time×number of open channels)/Total time of record].
(§2) The standard external solution contains the following substance within NaOH solution of pH 7.4; 150 mM NaCl, 6 mM KCl, 1.5 mM CaCl2, 1 mM MgCl2, 10 mM HEPES, and 10 mM glucoses. The osmolarity of this solution, as determined by an osmometer (Fiske, Norwood, Mass., USA), was 320±5 mOsm. In the inside-out mode, the bath solution contains 150 mM KCl, 0.5 mM MgCl2, 10 mM HEPES within KOH solution of pH 7.2, and the pipette solution contains 150 mM NaCl, 6 mM KCl, 1 mM MgCl2, 10 mM HEPES, 10 mM glucoses, 5 mM EGTA within NaOH solution of pH 7.4. Free Ca2+ concentrations in the pipette or bath solutions were adjusted to 1 μM by adding appropriate amounts of Ca2+ (calculated using CaBuf software; G. Droogmans, Leuven, ftp://ftp.cc.kuleuven.ac.be/pub/droogmans/cabuf.zip) in the presence of 5 mM EGTA.
KCa3.1 currents were activated by adding 1-ethyl-2-benzimidazolinone (1-EBIO, 100 μM) to the external solution and loading 1 μM Ca2+ via patch pipette in whole-cell clamped NIH-3T3 fibroblasts.

[6] = system: KCa3.1 channel; experiment: Western blotting of KCa3.1 channel phosphorylation in NIH-3T3 cells; type: cell-based
Description: After the treatment, cells were washed once in ice-cold phosphate buffered saline (PBS) and lysed in protein extraction buffer containing protease inhibitor cocktail. Protein concentration in the supernatant was determined by Bradford protein assay. For Western blot analysis, 30 μg of protein was subjected to SDS-PAGE, and proteins were then transferred to a nitrocellulose membrane. Membranes were blocked for 1 hour with TBST (10 mM Tris-HCl, 150 mM NaCl, and 1% (v/v) Tween-20, pH 7.6) containing 5% bovine serum albumin (BSA) at room temperature. The blots were incubated for 3 hours with rabbit anti-P-PKA substrate antibody followed by incubation with horseradish peroxidase-conjugated secondary antibodies for 1 hour. Bands were visualized by chemiluminescence. Data collection and processing were performed using a luminescent image analyzer LAS-3000 and IMAGE GAUSE software (Fuji Film, Japan).

[7] = target: T1, KCa3.1 channel; experiment: Inside-out patch single channel recording of KCa3.1 channels in NIH-3T3 cells; type: cell-based
Description: as §1, §2
In inside-out patches, KCa3.1 channels were activated by clamping Ca2+ concentration of the bath solution to 1 μM and applying 1-EBIO. The holding potential was then changed from −70 to 50 mV (FIG. 7). The single channel currents were inhibited by TRAM-34. […] The present inventors then applied modafinil (30 or 100 nM) to the bath solution. […] The open probability was also not changed by modafinil (FIGS. 7A and 7B). A linear fit of the data between 50 to −70 mV yielded a slope conductance of 38.1 pS in the control group and 39.4 pS in the presence group of modafinil (FIG. 7C).

[8] = currents activated by 1 μM Ca2+ and 1-EBIO 100 μM
[9] = modafinil 30 or 100 nM in bath solution

## NC(=O)C[S+]([O-])C(c1ccccc1)c1ccccc1 (centres unmarked) [modafinil, 2-(benzhydrylsulfinyl) acetamide]
[1]; cultured mouse aortic SMCs exposed for 3 minutes
  intracellular cAMP concentration: increased in a concentration-dependent manner
[1]; primary cultured mouse aortic smooth muscle cells, 3 min, p<0.01
  concentration from which intracellular cAMP concentration significantly increased: 10 nM
[2]; NIH-3T3 cell, 1 μM of modafinil
  concentration of cAMP compared to treating the cell with 10 μM of forskolin: 2 times
[2]
  intracellular cAMP concentration: increased in a concentration-dependent manner
[3]
  IC50: 11.9 ± 0.3 nM
[4]; read-out: IC50 of relaxation of contracted artery
  IC50: 10.5 ± 0.4 nM
[4]; read-out: IC50 of relaxation of contracted rings
  IC50: 10.1 ± 0.1 nM
[5]
  IC50: 6.8 ± 0.7 nM
[5]; H89 (10 μM) pretreatment
  effect on KCa3.1 currents in cells pretreated by H89: not inhibited
[5]; PKI14-22 (10 μM) in pipette solution
  effect on KCa3.1 currents with PKI14-22 in the pipette solution: not affected
[5]; [8]
  concentration for maximal inhibition of KCa3.1 currents: 100.0 ± 5.7 nM
[6]; NIH-3T3 cells, treatment for 5 min
  KCa3.1 channel phosphorylation: increased KCa3.1 phosphorylation in a concentration-dependent manner
[7]; linear fit between 50 to -70 mV, in the presence of modafinil
  slope conductance of single KCa3.1 channel: 39.4 pS
[7]; [9]
  open probability of KCa3.1 channels: not changed
  single channel activity of KCa3.1 channels: did not change

## CNC(=O)C[S+]([O-])C(c1ccccc1)c1ccccc1 (centres unmarked) [M015, 2-(benzhydrylsulfinyl)-N-methylacetamide]
[2]
  intracellular cAMP concentration: increased the intracellular cAMP concentration in a concentration-dependent manner
[4]
  effect on vascular smooth muscle contraction: relaxed
[5]; [8]
  effect on KCa3.1 currents: inhibited

## O=S(=O)(NCCNC/C=C/c1ccc(Br)cc1)c1cccc2cnccc12 [H89]
[6]; NIH-3T3 cells pretreated with PKA inhibitor for 30 min
  effect on channel phosphorylation in the resting state and by forskolin: completely abolished

## O=C(C[S+]([O-])C(c1ccccc1)c1ccccc1)NCC1CCCO1 (centres unmarked) [M020, 2-(benzhydrylsulfinyl)-N-((tetrahydrofuran-2-yl)methyl) acetamide]
[2]
  intracellular cAMP concentration: increased the intracellular cAMP concentration in a concentration-dependent manner
[4]
  effect on vascular smooth muscle contraction: relaxed
[5]; [8]
  effect on KCa3.1 currents: inhibited

## O=C(CSC(c1ccccc1)c1ccccc1)Nc1ccccc1 [M008, 2-(benzhydrylthio)-N-phenylacetamide]
[2]
  intracellular cAMP concentration: increased the intracellular cAMP concentration in a concentration-dependent manner
[4]
  effect on vascular smooth muscle contraction: relaxed
[5]; [8]
  effect on KCa3.1 currents: inhibited

## Clc1ccccc1C(c1ccccc1)(c1ccccc1)n1cccn1 [TRAM-34]
[5]; [8]
  effect on KCa3.1 currents: inhibited
[7]; activated by 1 μM Ca2+ and 1-EBIO
  effect on single channel currents: inhibited

## O=C(CSC(c1ccccc1)c1ccccc1)NCC1CCCO1 (centres unmarked) [M006, 2-(benzhydrylthio)-N-((tetrahydrofuran-2-yl)methyl)acetamide]
[2]
  intracellular cAMP concentration: increased the intracellular cAMP concentration in a concentration-dependent manner
[4]
  effect on vascular smooth muscle contraction: relaxed
[5]; [8]
  effect on KCa3.1 currents: inhibited

## CC#CCC(C)[C@H](O)/C=C/[C@@H]1[C@H]2C/C(=C/CCCC(=O)O)C[C@H]2C[C@H]1O (some centres unmarked) [iloprost]
[2]
  intracellular cAMP concentration: increased cAMP concentration
[4]; read-out: IC50 of inhibition of rat pulmonary arterial contraction
  IC50: 39.4 ± 5.1 nM
